Tests used:
[1] = in vitro; settings: human
[2] = test system: KSHV-infected PDLSCs; assay: ELISA of angiogenic growth factors secreted by KSHV-infected PDLSCs; assay type: cell-based, human; settings: KSHV-PDLSCs treated 24 hours, media changed, collected after a further 24 hours
Text: (§1) KS has been considered as a cytokine disease as KS lesions over-produce cytokines, especially angiogenic growth factors, that contribute to the major pathogenic features of KS [53, 54]. In the early stage, KS is not a real sarcoma but an angiohyperplastic-inflammatory lesion mediated by inflammatory cytokines and angiogenic factors. The finding that the paracrine-regulated angiogenesis requires the redox function of APE1 (Fig 2) prompted us to further investigate if blockade of APE1 redox function by C10 could reduce cytokine and angiogenic factor production. […] Then the culture media were collected and examined for the expression of VEGF-A and IL-6 by ELISA.
(§2) Levels of VEGF-A, IL-6 and IL-8 in cell culture supernatants were determined using specific ELISA kits for human VEGF-A (eBioscience), IL-6 (BD) and IL-8 (Xin Bosheng, China) according to the manufacturer instructions.

[3] = test system: KSHV; assay: KSHV lytic DNA replication (intracellular viral genomic DNA, real-time PCR) in TPA-induced BCBL-1 cells; assay type: cell-based, Kaposi's sarcoma-associated herpesvirus (KSHV); settings: Human gammaherpesvirus 8, BCBL1, compound added 3 h post-induction, intracellular viral genomic DNA at 48 h post-induction
[4] = test system: pancreatic cancer; parameters: method as in PMID 21700832; settings: cell lines and pancreatic cancer xenograft model in mice; cited from earlier work
[5] = test system: KSHV; assay: KSHV virion production (encapsidated viral DNA in media) from TPA-induced BCBL-1 cells; assay type: cell-based, Kaposi's sarcoma-associated herpesvirus (KSHV); settings: for EC50: Human gammaherpesvirus 8, BCBL1, 120 h, TPA-induced BCBL-1, encapsidated viral DNA in media 5 days post-induction, read-out: EC50 for blocking KSHV virion production
[6] = parameters: method as in PMID 18627350; settings: cited from earlier work
[7] = test system: retinal angiogenesis; parameters: method as in PMID 20937296, PMID 24624338; settings: in vitro and in an animal model; cited from earlier work
[8] = test system: KSHV-infected PDLSCs; assay: In vitro Matrigel tube formation assay with KSHV-infected PDLSCs; settings: for paracrine-mediated angiogenesis (tubulogenesis of PDLSCs in conditioned media): conditioned media from KSHV-infected PDLSCs treated 24 hours with compound
[9] = biological target: APE1 exonuclease activity (Homo sapiens, UniProt P27695); assay: Exonuclease assay for APE1 C-terminal (DNA base excision) activity; assay type: biochemical
APE1 exonuclease activity, sequence (P27695 whole entry): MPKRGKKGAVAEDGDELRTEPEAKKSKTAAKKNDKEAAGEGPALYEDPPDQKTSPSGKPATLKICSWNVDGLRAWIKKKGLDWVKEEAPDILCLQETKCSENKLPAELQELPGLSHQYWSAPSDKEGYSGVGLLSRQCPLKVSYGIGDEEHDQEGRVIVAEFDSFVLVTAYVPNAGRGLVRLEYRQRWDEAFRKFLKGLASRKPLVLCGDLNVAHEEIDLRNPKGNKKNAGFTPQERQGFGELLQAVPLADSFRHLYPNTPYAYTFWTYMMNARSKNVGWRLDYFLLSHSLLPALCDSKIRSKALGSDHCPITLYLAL

[10] = biological target: T1, APE1 redox activity (Homo sapiens, UniProt P27695); assay: EMSA-based assay for APE1 redox activity (APE1-dependent AP-1 DNA binding); assay type: biochemical; settings: reduced APE1 0.1 μM, purified c-jun/c-fos
T1 construct: 6xHis (N); made in house; host or cells: E. coli (Roseta)
T1 sequence (P27695 whole entry): as above

[11] = test system: KSHV-infected HUVECs; assay: ELISA of VEGF-A, IL-6 and IL-8 secreted by KSHV-infected HUVECs; assay type: cell-based, human; settings: S3 Fig
Text: as §1, §2
Supplementary file ppat.1006289.s003.pdf: S3 Fig Effects of C10 on KSHV-mediated secretion of VEGF-A, IL-6 and IL-8 from HUVECs. KSHV-infected HUVECs were treated with either C10 for 24 hours. After changing media to remove C10 from the media, cells were continued to culture for 24 hours. Then the culture media were collected and examined for the expression of VEGF-A, IL-6 and IL-8 by ELISA. (PDF) Click here for additional data file.

[12] = test system: KSHV
[13] = test system: AP-1 promoter; assay: AP-1 promoter-luciferase reporter assay in 293T cells; assay type: cell-based, human; settings: TPA induction, varying C10 concentrations
[14] = biological target: T2, APE1 (Homo sapiens, UniProt P27695); assay: Surface plasmon resonance (SPR) binding to APE1
T2 sequence (P27695 whole entry): as above

[15] = Cytotoxicity (MTT assay) in iSLK.219 cells; assay type: cell-based; settings: human
Text: The medium was replaced with DMSO.
(PDF) Click here for additional data file.

[16] = test system: KSHV-infected PDLSCs; assay: Matrigel-transwell cell invasion assay with KSHV-infected PDLSCs; settings: C10 in different concentrations
[17] = test system: KSHV; assay: KSHV lytic DNA replication in doxycycline-induced iSLK.219 cells; assay type: cell-based, Kaposi's sarcoma-associated herpesvirus (KSHV); settings: Human gammaherpesvirus 8, doxycycline 3 h, then C10, read-out: IC50 for viral lytic DNA replication
[18] = Cytotoxicity by Trypan blue exclusion in BCBL-1 cells; settings: human
[19] = test system: RTA promoter; assay type: cell-based, human
[20] = test system: KSHV; assay: microbe, parasite or virus in culture; settings: Human gammaherpesvirus 8, 3 h, read-out: EC50 for virion production
[21] = biological target: T2, APE1; assay: Differential scanning fluorimetry (DSF) thermal shift of APE1; settings: APE1 2 μM, incubated with compound at 37°C for 30 min; melting curves shifted to the left
[22] = test system: KSHV-induced angiogenesis; assay: Murine Matrigel plug assay of angiogenesis by KSHV-infected PDLSCs; assay type: in vivo; settings: C10 in varying concentrations mixed with Matrigel; C57BL/6 mice; day 7
Text: Next, we employed a murine Matrigel plug assay to examine the ability of C10 to inhibit angiogenesis […]. KSHV-infected and mock-infected PDLSCs were mixed with Matrigel (without any cytokines) and implanted into C57BL/6 mice. In day 7, the matrigel plugs were stripped and examined for new blood vessel formation. […] The effect of C10 on KSHV-mediated angiogenesis in the […] assay was quantitated by measuring the hemoglobin content after homogenizing the Matrigel plugs using Drabkin’s reagent. The result, shown in Fig 6C (right panel), is consistent with that of in vitro Matrigel tubule formation assay.
Female C57BL/6 mice (4 to 6 weeks old) were obtained from the Sun Yat-sen University Animal Center. Five animals were used per treatment group. 5-10x10^6 cells in 100–200 μl medium were prepared and thoroughly mixed with 500 μl matrigels to total volume of 600–800 μl, and subsequently implanted to mice by inguinal injection. After even days, the mice were killed and matrigel plugs were removed. The Matrigel plugs were photographed and subsequently dissolved in 1 ml Dispase reagent for 16 h at 37°C. After removal of debris by centrifugation, hemoglobin was qualified using Drabkin's reagent (Sigma-Aldrich).

CCCCCCCCC/C(=C\C1=C(C)C(=O)C(OC)=C(OC)C1=O)C(=O)O [E3330]
CC50 at 48 h [1]: 112 µM
levels of secreted angiogenic growth factors (VEGF-A, IL-6) by ELISA [2]: able to reduce the levels of these angiogenic growth factors
IC50 [3]: 17.7 µM
tumor growth [4]: cause tumor growth inhibition
EC50 [5]: 8.5 µM
cytotoxicity [6]: low cytotoxicity
retinal angiogenesis [7]: blocks retinal angiogenesis in vitro and in an animal model
tubulogenesis of KSHV-PDLSC (total tube length) ([8]; compound present on Matrigel at different concentrations): showed inhibitory activity at higher doses
paracrine-mediated angiogenesis (tubulogenesis of PDLSCs in conditioned media) [8]: capable of inhibiting paracrine-mediated angiogenesis

O=c1c(O)c(-c2cc(O)c(O)c(O)c2)oc2cc(O)cc(O)c12 [Myrecetin, reference compound]
effect on APE1 exonuclease activity ([9]; positive control, different concentrations): dose-dependent inhibitory response

Cc1ccc(/C=C/C(=O)CC(=O)/C=C/c2ccc(C)o2)o1 [C10, (1E,6E)-1,7-bis(5-methylfuran-2-yl) hepta-1-6-diene-3,5–dione]
IC50 [10]: 17 µM
KSHV-induced productions of VEGF-A, IL-6 and IL-8 (ELISA) [11]: inhibited by C10
levels of secreted angiogenic growth factors (VEGF-A, IL-6) by ELISA [2]: able to reduce the levels of these angiogenic growth factors
IC50 [3]: 4.6 µM
fold by which EC50 (virion release) is lower than IC50 (intracellular viral DNA replication) ([5]; BCBL-1): 29 fold
selectivity index (CC50 / EC50) ([5]; BCBL-1): 165
EC50 [5]: 0.16 µM
SI (CC50 / EC50) [12]: 23.4
TPA-induced AP-1 promoter activity (luciferase) [13]: able to block
paracrine-mediated angiogenesis (tubulogenesis of PDLSCs in conditioned media) [8]: capable of inhibiting paracrine-mediated angiogenesis
effect on APE1 exonuclease activity ([9]; up to 100 μM of C10): unaffected
Kd [14]: 0.189 µM
CC50 at 48 h [15]: 75 µM
cell migration and invasion of KSHV-PDLSC (Transwell) [16]: able to block cell migration and invasion
IC50 [17]: 5.8 µM
CC50 at 48 h [18]: 26.4 µM
TPA-induced RTA promoter activity (luciferase) [19]: able to block
auto-regulation of the RTA promoter activity by RTA (luciferase) [19]: able to block auto-regulation of the RTA promoter activity
EC50 [20]: 3.2 µM
shift of the Tm of APE1 (DSF) [21]: 1.3 °C
KSHV-induced angiogenesis in Matrigel plug (blood vessel formation, hemoglobin content) [22]: dramatically inhibited in a dose dependent manner
